ChEMBL document CHEMBL4229543, “Squaramides as novel class I and IIB histone deacetylase inhibitors for topical treatment of cutaneous t-cell lymphoma” (Bioorg Med Chem Lett, 2018)
≈ marks a conversion by molar mass, not a printed value.

Columns and labels:
[1] = Clearance in human hepatocytes assessed per million cells at 1 uM after 5 to 90 mins by LC-MS/MS analysis; format: ADME, cell-based, Hepatocyte; settings: read-out: CLH
Histone deacetylase 1 = Histone deacetylase 1 (Homo sapiens, UniProt Q13547); test: Inhibition of human recombinant HDAC1 using Fluor de Lys as substrate after 2 hrs by fluorescence method
HuT78 = test: Pro-apoptotic activity in human HUT78 cells after 18 hrs by caspase-Glo 3/7 assay; format: functional, cell-based; settings: HuT78, 18 h
[2] = Solubility in pH 7.4 phosphate buffer solution at 100 uM after 24 hrs by HPLC method; format: physicochemical; settings: for solubility at 24 h, 100 µM: phosphate buffer, pH 7.4
[3] = Solubility in PG/EtOH (96%) at 30 mg/mL after 24 hrs by UV-spectrometric method; format: physicochemical; settings: for solubility at 24 h: PG/EtOH (96%)

Sequence of Histone deacetylase 1 (Q13547 whole entry): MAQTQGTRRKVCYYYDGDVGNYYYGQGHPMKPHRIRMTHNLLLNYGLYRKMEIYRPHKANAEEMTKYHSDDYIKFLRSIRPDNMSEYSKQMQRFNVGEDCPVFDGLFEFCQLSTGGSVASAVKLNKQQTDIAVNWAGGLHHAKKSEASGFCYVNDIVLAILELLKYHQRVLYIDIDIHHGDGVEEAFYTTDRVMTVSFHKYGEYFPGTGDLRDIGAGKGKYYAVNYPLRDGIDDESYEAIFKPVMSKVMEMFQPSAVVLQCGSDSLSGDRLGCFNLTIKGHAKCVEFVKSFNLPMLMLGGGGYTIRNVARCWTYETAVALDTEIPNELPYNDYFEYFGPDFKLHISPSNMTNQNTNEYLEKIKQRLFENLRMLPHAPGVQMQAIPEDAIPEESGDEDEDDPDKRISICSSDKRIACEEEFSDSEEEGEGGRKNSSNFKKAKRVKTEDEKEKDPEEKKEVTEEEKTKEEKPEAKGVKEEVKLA

| hepatocyte CLint at 1 µM [1] [µL/min/1e6 cells] | Ki (Histone deacetylase 1) [nM] | EC50 (HuT78) [nM] | solubility at 24 h, 100 µM [2] [µM] | solubility at 24 h [3] [µM] | solubility ([2]; buffer, pH 7.4, 24 h, 100 µM) [µM] | solubility ([3]; 24 h) [µM] | SMILES |
| --- | --- | --- | --- | --- | --- | --- | --- |
| 17 | 0.063 | 12 | 82 (≈ 31.8 µg/mL) | – | – | – | COc1ccc(Nc2c(NC3(CCCCC(=O)NO)CCC3)c(=O)c2=O)cc1 |
| < 5 | 4.4 | 280 | 89 (≈ 29.5 µg/mL) | 12000 (≈ 3980 µg/mL) | – | – | Cc1ccccc1Nc1c(NCCCCCC(=O)NO)c(=O)c1=O |
| 7.2 | 0.057 | 1.7 | 8.1 (≈ 2.68 µg/mL) | 1800 (≈ 596 µg/mL) | – | – | Cc1ccc(Nc2c(NCCCCCC(=O)NO)c(=O)c2=O)cc1 |
| < 5 | 2.7 | 13 | 80 (≈ 30 µg/mL) | 27000 (≈ 10100 µg/mL) | – | – | C[C@H](CCCCC(=O)NO)Nc1c(Nc2ccc(N(C)C)cc2)c(=O)c1=O |
| < 5 | 2.3 | 130 | 76 (≈ 27.3 µg/mL) | 5600 (≈ 2010 µg/mL) | – | – | Cc1ccc([C@H](C)Nc2c(NCCCCCC(=O)NO)c(=O)c2=O)cc1 |
| < 5 | 12 | 290 | 87 (≈ 26.4 µg/mL) | 32000 (≈ 9710 µg/mL) | – | – | O=C(CCCCNc1c(Nc2ccccc2)c(=O)c1=O)NO |
| < 5 | 9.4 | 170 | 75 (≈ 27 µg/mL) | 57000 (≈ 20500 µg/mL) | – | – | CC[C@H](Nc1c(NCCCCCC(=O)NO)c(=O)c1=O)c1ccccc1 |
| 11 | 0.23 | 4 | 4.5 (≈ 1.73 µg/mL) | 4700 (≈ 1810 µg/mL) | – | – | O=C(CCCCCNc1c(Nc2ccc(C(F)(F)F)cc2)c(=O)c1=O)NO |
| 31 | 0.58 | 10 | 27 (≈ 11.2 µg/mL) | 70000 (≈ 29100 µg/mL) | – | – | C[C@H](CCCCC(=O)NO)Nc1c(Nc2ccc(OC(F)(F)F)cc2)c(=O)c1=O |
| < 5 | 0.91 | 6.2 | 12 (≈ 4.32 µg/mL) | 1400 (≈ 505 µg/mL) | – | – | CN(C)c1ccc(Nc2c(NCCCCCC(=O)NO)c(=O)c2=O)cc1 |
| < 5 | 1.4 | 84 | 91 (≈ 29.4 µg/mL) | 8700 (≈ 2810 µg/mL) | – | – | O=C(CCCCCNc1c(NC2CCCCC2)c(=O)c1=O)NO |
| < 5 | 0.5 | 290 | 93 (≈ 36.3 µg/mL) | 2600 (≈ 1020 µg/mL) | – | – | COc1cc(Nc2c(NCCCCCC(=O)NO)c(=O)c2=O)ccc1N(C)C |
| 3.6 | 4.3 | 44 | 89 (≈ 33.3 µg/mL) | 28000 (≈ 10500 µg/mL) | – | – | C[C@@H](CCCCC(=O)NO)Nc1c(Nc2ccc(N(C)C)cc2)c(=O)c1=O |
| < 5 | 2.5 | 220 | 73 (≈ 25.2 µg/mL) | 28000 (≈ 9670 µg/mL) | – | – | C[C@H](Nc1c(NCCCCCC(=O)NO)c(=O)c1=O)c1ccccc1 |
| < 5 | 0.56 | 26 | 6 (≈ 1.99 µg/mL) | 1800 (≈ 596 µg/mL) | – | – | O=C(CCCCCCNc1c(Nc2ccccc2)c(=O)c1=O)NO |
| < 5 | 11 | 160 | 89 (≈ 32 µg/mL) | 82000 (≈ 29500 µg/mL) | – | – | Cc1cccc([C@@H](C)Nc2c(NCCCCCC(=O)NO)c(=O)c2=O)c1 |
| < 5 | 2.3 | 560 | 92 (≈ 33.1 µg/mL) | 47000 (≈ 16900 µg/mL) | – | – | Cc1ccccc1[C@H](C)Nc1c(NCCCCCC(=O)NO)c(=O)c1=O |

| hepatocyte CLint at 1 µM [1] [µL/min/1e6 cells] | Ki (Histone deacetylase 1) [nM] | EC50 (HuT78) [nM] | solubility at 24 h, 100 µM [2] [µM] | solubility at 24 h [3] [µM] | solubility ([2]; buffer, pH 7.4, 24 h, 100 µM) [µM] | solubility ([3]; 24 h) [µM] | SMILES |
| --- | --- | --- | --- | --- | --- | --- | --- |
| 10 | 0.15 | 7.2 | 10 (≈ 4.38 µg/mL) | 21000 (≈ 9210 µg/mL) | – | – | C[C@H](CCCCC(=O)NO)Nc1c(Nc2ccc3cc(C(F)(F)F)[nH]c3c2)c(=O)c1=O |
| < 5 | 0.27 | 28 | 4.4 (≈ 1.63 µg/mL) | 9100 (≈ 3370 µg/mL) | – | – | Cc1cc2ccc(Nc3c(NCCCCCC(=O)NO)c(=O)c3=O)cc2[nH]1 |
| < 4.8 | 7.3 | 270 | 75 (≈ 24.9 µg/mL) | 5700 (≈ 1890 µg/mL) | – | – | O=C(CCCCCNc1c(NCc2ccccc2)c(=O)c1=O)NO |
| 18 | 0.39 | 26 | 79 (≈ 26.2 µg/mL) | 11000 (≈ 3650 µg/mL) | – | – | Cc1cccc(Nc2c(NCCCCCC(=O)NO)c(=O)c2=O)c1 |
| < 5 | 11 | 1100 | 88 (≈ 31.6 µg/mL) | > 84000 | – | – | CC(C)(Nc1c(NCCCCCC(=O)NO)c(=O)c1=O)c1ccccc1 |
| 9.2 | 0.056 | 5.5 | 99 (≈ 37.2 µg/mL) | – | – | – | COc1ccc(Nc2c(NC(C)(C)CCCCC(=O)NO)c(=O)c2=O)cc1 |
| < 4.8 | 0.29 | 28 | 47 (≈ 14.9 µg/mL) | 2200 (≈ 698 µg/mL) | – | – | O=C(CCCCCNc1c(Nc2ccccc2)c(=O)c1=O)NO |
| < 5 | 4.8 | 100 | 80 (≈ 27.6 µg/mL) | 39000 (≈ 13500 µg/mL) | – | – | C[C@@H](Nc1c(NCCCCCC(=O)NO)c(=O)c1=O)c1ccccc1 |
| 6.6 | 1.9 | 38 | – | 5700 (≈ 2710 µg/mL) | < 1 | – | O=C(CCCCC(Cc1ccccc1)Nc1c(Nc2ccc(C(F)(F)F)cc2)c(=O)c1=O)NO (racemic) |
| 21 | 0.28 | 18 | 30 (≈ 12 µg/mL) | 20000 (≈ 7990 µg/mL) | – | – | CC(CCCCC(=O)NO)Nc1c(Nc2ccc(C(F)(F)F)cc2)c(=O)c1=O (racemic) |
| 27 | 12 | 280 | 5.3 (≈ 2.27 µg/mL) | 6300 (≈ 2690 µg/mL) | – | – | CC(C)C(CCCCC(=O)NO)Nc1c(Nc2ccc(C(F)(F)F)cc2)c(=O)c1=O (racemic) |
| < 5 | 0.69 | 32 | 93 (≈ 30.8 µg/mL) | 46000 (≈ 15200 µg/mL) | – | – | CC(CCCCC(=O)NO)Nc1c(Nc2ccccc2)c(=O)c1=O (racemic) |
| 25 | 0.51 | 21 | 6.6 (≈ 2.73 µg/mL) | 25000 (≈ 10300 µg/mL) | – | – | CCC(CCCCC(=O)NO)Nc1c(Nc2ccc(C(F)(F)F)cc2)c(=O)c1=O (racemic) |
| 7.1 | 0.27 | 12 | 85 (≈ 30.7 µg/mL) | 11000 (≈ 3980 µg/mL) | – | – | COc1ccc(Nc2c(NC(C)CCCCC(=O)NO)c(=O)c2=O)cc1 (racemic) |
| < 6.5 | 0.097 | 5.6 | 83 (≈ 28.7 µg/mL) | 4900 (≈ 1690 µg/mL) | – | – | Cc1ccc(Nc2c(NC(C)CCCCC(=O)NO)c(=O)c2=O)cc1 (racemic) |
| < 5 | – | – | 87 (≈ 23 µg/mL) | – | – | 32000 (≈ 8460 µg/mL) | O=C(CCCCCCC(=O)Nc1ccccc1)NO [VORINOSTAT] |
